Test [1] deals with Plasmodium berghei. The test is described as follows: (§1) Antimalarial activity against Plasmodium berghei in mice (Mus musculus). It counts as functional, organism-based.
Test [2] relates to Plasmodium berghei. The test is described as §1. It is filed as functional.

IC50, ED50 and ED90 data for 6 molecules are collected here from ChEMBL document CHEMBL1135757, “Orally active, water-soluble antimalarial 3-aryltrioxanes: short synthesis and preclinical efficacy testing in rodents” (J Med Chem, 2002).

`c1ccc([C@@]23CC[C@H]4CCC[C@H]5CCO[C@H](O2)[C@@]45OO3)cc1`: it took 1.3 nM to reach half-maximal inhibition in the test on Plasmodium berghei [1] (IC50).
For `Fc1ccc([C@]23CC[C@H]4CCCC[C@@]4(OO2)[C@H](OCc2ccccc2)O3)cc1`, 31 nM corresponded to half-maximal inhibition in the test with Plasmodium berghei [1] (IC50).
Turning to `O=C(O)c1ccc([C@@]23CC[C@H]4CCC[C@H]5CCO[C@H](O2)[C@@]45OO3)cc1`, in the test with Plasmodium berghei [2], the ED50 (usually the midpoint of the dose-response relation) came to 15 mg/kg and the ED90 stood at 51 mg/kg.
Turning to `C[C@@H]1[C@H](OCc2ccc(C(=O)O)cc2)O[C@@H]2O[C@@]3(C)CC[C@@H]4[C@@H](C)CC[C@@H]1[C@]24OO3` [ARTELINIC ACID], in the test on Plasmodium berghei [2], the 50% effect level (ED50) was put at a dose of 9.6 mg/kg and the ED90 came to 29 mg/kg.
Consider `C[C@@H]1CC[C@H]2[C@@H](C)C(=O)O[C@@H]3O[C@@]4(C)CC[C@@H]1[C@]32OO4` [ARTEMISININ], for which, in the test with Plasmodium berghei [1], inhibition was half-maximal at 9.4 nM (IC50).
`O=C(O)c1ccc([C@]23CC[C@H]4CCCC[C@@]4(OO2)[C@H](OCc2ccccc2)O3)cc1`: in the test on Plasmodium berghei [2], it took a dose of 17 mg/kg to reach the 50% effect level (ED50) and the ED90 turned out to be 59 mg/kg.
